Laboratory results published in patent US7579356B2, “Thia-tetraazaacenaphthylene kinase inhibitors” (Janssen Pharmaceutica NV, priority 2005, dated 2009).

What was measured:
Type in all cases: biochemical
Lyn kinase (human) = biological target: T1, Lyn kinase (human) (Homo sapiens, UniProt P07948); test: Lyn Kinase Assay; conditions: test concentration of 2 μM
T1 construct: purchased Upstate Biotechnology, Lake Placid, N.Y
Procedure: A mixture of a 10× kinase buffer (500 mM MOPS at pH 7.5, 1 mM EGTA, 1 mM Sodium Vanadate, 1% β-mercaptoethanol and 100 mM Magnesium Acetate), ATP (5 μM final from a 10 mM stock), polyGluTyr (0.1 mg/mL final from a 1 mg/mL stock), γ-^33P ATP (10 μCl/μL stock) and water (for a total of 20 μL/well) was added to each well of a Streptavidin Flashplate.
Test compound in 100% DMSO (0.5 μL) was added to the appropriate wells. Diluted Lyn kinase (human)(Accession Number EMBL M16038) (Upstate Biotechnology, Lake Placid, N.Y.) (diluted in a buffer consisting of 50 mM Tris at pH 7.5, 0.1 mM EGTA, Sodium Vanadate (0.1 mM), β-mercaptoethanol (0.1%) and 1 mg/mL bovine serum albumin) (2.5 μL) was added to the wells to initiate the reactions.
The reaction plates were incubated at 30° C. for 40 min. The reaction was terminated by the addition of a 3% phosphoric acid solution (5 μL). The reaction product (10 μL) was spotted onto a P30 filtermat and washed for 5 minutes in phosphoric acid (75 mM). The wash sequence was repeated two more times, followed with one final wash in methanol. The plates were then dried, sealed and read on the TopCount scintillation counter after adding 30 μL scintillation fluid.
(§1) The Lyn inhibition values were derived according to the procedure described in Example 164 and are shown as percent in Table 3 at a test concentration of 2 μM. For those compounds with an IC50, the IC50 value in μM is shown in parentheses. For compounds with multiple test values, each value represents a separate assay result.

HER-2 = biological target: T2, HER-2 (Homo sapiens, UniProt P04626); test: HER-2 Kinase Assay; conditions: test concentration of 1 μM
T2 construct: His6 with thrombin site (N); purchased Proqinase (Freiburg, Germany)
T2 sequence (P04626 679-1255): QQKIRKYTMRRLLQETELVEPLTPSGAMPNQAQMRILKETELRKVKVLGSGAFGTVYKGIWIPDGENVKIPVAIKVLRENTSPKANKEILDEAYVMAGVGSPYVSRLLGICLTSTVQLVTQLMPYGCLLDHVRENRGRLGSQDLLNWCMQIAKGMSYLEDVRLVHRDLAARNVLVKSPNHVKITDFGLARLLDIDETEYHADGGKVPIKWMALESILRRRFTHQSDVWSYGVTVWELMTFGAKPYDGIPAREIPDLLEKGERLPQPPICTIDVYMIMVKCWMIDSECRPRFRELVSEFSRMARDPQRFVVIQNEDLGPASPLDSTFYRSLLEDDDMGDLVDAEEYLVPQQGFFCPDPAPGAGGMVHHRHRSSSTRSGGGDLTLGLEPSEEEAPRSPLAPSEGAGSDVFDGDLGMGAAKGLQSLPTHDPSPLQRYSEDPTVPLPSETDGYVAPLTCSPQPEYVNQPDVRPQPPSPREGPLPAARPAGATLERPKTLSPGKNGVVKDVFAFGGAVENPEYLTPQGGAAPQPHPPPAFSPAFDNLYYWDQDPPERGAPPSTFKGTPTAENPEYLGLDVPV
How it was run: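 GST/HIS6-tagged HER-2 aa 679–1255 kinase with biotinylated polyGluTyr (1.5 ng/μL), 1 μM ATP plus γ-33P-ATP, Mg2+/Mn2+, DTT, Hepes pH 7.5; 1 h at 30 °C. Substrate phosphorylation captured on streptavidin scintillation plates after EDTA/PBS washes; values are % inhibition at 1 μM or IC50.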

EGFR = biological target: T3, EGFR (Homo sapiens, UniProt P00533); test: EGFR Kinase Assay; conditions: for IC50: GST-EGFR, ATP 5 μM; for inhibition at 2 µM: test concentration of 2 μM, compounds without an IC50, read-out: EGFR inhibition in percent
T3 construct: The intracellular portion of EGFR started at nucleotide 2189 (corresponding to amino acid 667) and ended at the termination codon; made in house; host or cells: Sf9 insect cells (baculovirus)
T3 sequence (P00533 669-1210 limits assumed): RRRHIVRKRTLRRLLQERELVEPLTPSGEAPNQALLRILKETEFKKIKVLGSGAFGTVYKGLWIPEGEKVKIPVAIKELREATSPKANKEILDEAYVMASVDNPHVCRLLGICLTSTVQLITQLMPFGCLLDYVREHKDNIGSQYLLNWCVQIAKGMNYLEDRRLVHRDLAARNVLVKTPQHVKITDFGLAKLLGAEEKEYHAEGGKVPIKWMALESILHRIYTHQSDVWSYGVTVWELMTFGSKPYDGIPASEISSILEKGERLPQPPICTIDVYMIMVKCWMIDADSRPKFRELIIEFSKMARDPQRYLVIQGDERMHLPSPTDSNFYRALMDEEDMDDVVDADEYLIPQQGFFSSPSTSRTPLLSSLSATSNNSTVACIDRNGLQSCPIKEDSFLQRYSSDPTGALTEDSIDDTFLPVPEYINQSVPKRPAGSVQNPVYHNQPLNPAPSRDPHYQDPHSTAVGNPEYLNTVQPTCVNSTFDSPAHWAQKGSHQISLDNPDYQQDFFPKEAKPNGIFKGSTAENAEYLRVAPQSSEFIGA
How it was run: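 GST-fused human EGFR intracellular domain (from aa 667), Sf9-expressed, phosphorylated biotinylated polyGluTyr with 5 μM ATP plus γ-33P ATP in Tris pH 8.0, MgCl2, vanadate, 1 mM DTT, 1 h at 30 °C. Streptavidin Flashplate scintillation read; triplicate 16-point half-log series from 200 uM; IC50 from % inhibition vs log concentration, else % inhibition at 2 μM.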

c-Src kinase (human) = biological target: T4, c-Src kinase (human) (Homo sapiens, UniProt P12931); test: c-Src Kinase Assay; conditions: test concentration of 2 μM; multiple values are separate assay results
T4 construct: purchased Upstate Biotechnology, Lake Placid, N.Y
T4 sequence (P12931 whole entry): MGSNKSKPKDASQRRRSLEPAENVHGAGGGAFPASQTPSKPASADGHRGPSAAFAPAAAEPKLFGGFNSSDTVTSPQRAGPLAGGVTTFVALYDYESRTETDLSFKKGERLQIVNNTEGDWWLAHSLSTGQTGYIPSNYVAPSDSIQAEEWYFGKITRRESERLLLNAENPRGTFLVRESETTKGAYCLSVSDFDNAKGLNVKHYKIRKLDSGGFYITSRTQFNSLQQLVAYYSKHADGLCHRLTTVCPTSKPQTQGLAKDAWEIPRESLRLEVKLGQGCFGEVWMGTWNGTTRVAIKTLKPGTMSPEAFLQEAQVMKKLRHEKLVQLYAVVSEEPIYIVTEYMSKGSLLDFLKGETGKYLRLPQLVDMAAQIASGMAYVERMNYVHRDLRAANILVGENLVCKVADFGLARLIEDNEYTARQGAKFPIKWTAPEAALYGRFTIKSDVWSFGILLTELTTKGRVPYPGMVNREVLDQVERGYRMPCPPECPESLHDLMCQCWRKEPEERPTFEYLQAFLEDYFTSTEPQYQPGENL
Procedure: A mixture of a 10× kinase buffer (80 mM MOPS at pH 7.0, 2 mM EDTA and 100 mM Magnesium Chloride), ATP (5 μM final from a 10 mM stock), a Cdc2 peptide KVEKIGEGTYGVVYK (100 μM final from a 2.5 mM stock), γ-^33P ATP (10 μCl/μL stock) and water (for a total of 20 μL/well) was added to each well of a Streptavidin Flashplate.
Test compound in 100% DMSO (0.5 μL) was added to the appropriate wells. Diluted c-Src kinase (human) (Accession Number SWISS-PROT P12931) (Upstate Biotechnology, Lake Placid, N.Y.) (diluted in a buffer consisting of 20 mM MOPS at pH 7.0, 1 mM EDTA, β-mercaptoethanol (0.1%), Brij-35 (0.01%), glycerol (5%), and 1 mg/mL bovine serum albumin) (2.5 μL) was added to the wells to initiate the reactions. The reaction plates were incubated at 30° C. for 40 min. The reaction was terminated by the addition of a 3% phosphoric acid solution (5 μL). The reaction product (10 μL) was spotted onto a P30 filtermat and washed for 5 minutes in phosphoric acid (75 mM). The wash sequence was repeated two more times, followed with one final wash in methanol. The plates were then dried, sealed and read on the TopCount scintillation counter after adding 30 μL scintillation fluid.
as §1, with “c-Src” for “Lyn”, “using” for “according to”, “percent inhibition formula provided” for “procedure described”, “2” for “3”

T1 sequence (P07948 whole entry): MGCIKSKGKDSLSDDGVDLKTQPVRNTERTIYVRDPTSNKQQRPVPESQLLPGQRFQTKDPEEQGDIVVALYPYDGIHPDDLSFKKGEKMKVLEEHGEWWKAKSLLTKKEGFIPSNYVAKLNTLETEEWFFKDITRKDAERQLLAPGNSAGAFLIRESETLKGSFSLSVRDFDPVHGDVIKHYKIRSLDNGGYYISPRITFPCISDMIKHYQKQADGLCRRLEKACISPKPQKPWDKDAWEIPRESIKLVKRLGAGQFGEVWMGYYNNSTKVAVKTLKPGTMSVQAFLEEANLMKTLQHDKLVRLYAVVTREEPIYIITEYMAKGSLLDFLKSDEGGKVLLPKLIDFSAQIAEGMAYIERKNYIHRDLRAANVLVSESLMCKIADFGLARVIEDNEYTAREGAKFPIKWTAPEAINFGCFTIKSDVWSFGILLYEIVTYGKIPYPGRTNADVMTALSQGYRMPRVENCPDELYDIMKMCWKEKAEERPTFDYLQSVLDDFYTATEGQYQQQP

| inhibition at 2 µM (Lyn kinase (human)) [%] | inhibition at 1 µM (HER-2) [%] | IC50 (EGFR) [µM] | inhibition at 2 µM (c-Src kinase (human)) [%] | inhibition at 2 µM (EGFR) [%] | SMILES |
| --- | --- | --- | --- | --- | --- |
| -11 | -12 | 5.71 | 7 | – | COc1cc(N2C(=O)Nc3c(C(=O)Nc4ccc(OC)c(OC)c4)sc4ncnc2c34)c(Cl)cc1Cl [Cpd 35, 5-(2,4-dichloro-5-methoxy-phenyl)-4-oxo-4,5-dihydro-3H-1-thia-3,5,6,8-tetraaza-acenaphthylene-2-carboxylic acid (3,4-dimethoxy-phenyl)-amide] |
| -13 | 1 | 0.49 | 11 | – | COc1ccc(NC(=O)c2sc3ncnc4c3c2NC(=O)N4c2ccc(Br)cc2F)cc1OC [Cpd 37, 5-(4-bromo-2-fluoro-phenyl)-4-oxo-4,5-dihydro-3H-1-thia-3,5,6,8-tetraaza-acenaphthylene-2-carboxylic acild (3,4-dimethoxy-phenyl)-amide] |
| 11 | 24 | 0.41 | 16 | – | COc1cc(NC(=O)c2sc3ncnc4c3c2NC(=O)N4c2ccc(Br)cc2F)ccc1OCCN1CCOCC1 [Cpd 39, 5-(4-bromo-2-fluoro-phenyl)-4-oxo-4,5-dihydro-3H-1-thia-3,5,6,8-tetraaza-acenaphthylene-2-carboxylic acid [3-methoxy-4-(2-morpholin-4-yl-ethoxy)-phenyl]-amide] |
| -5 | -19 | 7.43 | 3 | – | O=C(O)c1sc2ncnc3c2c1NC(=O)N3c1ccc(Br)cc1F [Cpd 40, 5-(4-bromo-2-fluoro-phenyl)-4-oxo-4,5-dihydro-3H-1-thia-3,5,6,8-tetraaza-acenaphthylene-2-carboxylic acid] |
| 29 | -17 | – | 18 | 11 | COc1cc(N2C(=O)Nc3c(C(=O)O)sc4ncnc2c34)c(Cl)cc1Cl [Cpd 41, 5-(2,4-dichloro-5-methoxy-phenyl)-4-oxo-4,5-dihydro-3H-1-thia-3,5,6,8-tetraaza-acenaphthylene-2-carboxylic acid] |
| 24 | -36 | – | 8 | -3 | COc1cc(N2C(=O)Nc3c(C(=O)O)sc4ncnc2c34)cc(OC)c1OC [Cpd 42, 4-oxo-5-(3,4,5-trimethoxy-phenyl)-4,5-dihydro-3H-1-thia-3,5,6,8-tetraaza-acenaphthylene-2-carboxylic acid] |
| 49 | 21 | – | 45 | 26 | COc1cc(N2C(=O)Nc3c(C(=O)Nc4ccc(CN5CCOCC5)cc4)sc4ncnc2c34)c(Cl)cc1Cl [Cpd 44, 5-(2,4-dichloro-5-methoxy-phenyl)-4-oxo-4,5-dihydro-3H-1-thia-3,5,6,8-tetraaza-acenaphthylene-2-carboxylic acid (4-morpholin-1-ylmethyl-phenyl)-amide] |
| 29 | -25 | – | 17 | 14 | COc1cc(N2C(=O)Nc3c(C(=O)Nc4ccc(OCC5CCCCO5)c(OC)c4)sc4ncnc2c34)c(Cl)cc1Cl (stereo not drawn) [Cpd 45, 5-(2,4-dichloro-5-methoxy-phenyl)-4-oxo-4,5-dihydro-3H-1-thia-3,5,6,8-tetraaza-acenaphthylene-2-carboxylic acid [3-methoxy-4-(tetrahydro-pyran-2-ylmethoxy)-phenyl)-amide] |
| 40 | 0 | – | 30 | 1 | COc1cc(N2C(=O)Nc3c(C(=O)N4CCCC4)sc4ncnc2c34)c(Cl)cc1Cl [Cpd 46, 5-(2,4-dichloro-5-methoxy-phenyl)-2-(pyrrolidine-1-carbonyl)3H,5H-1-thia-3,5,6,8-tetraaza-acenaphthylen-4-one] |
| 28 | -28 | – | 9 | 5 | COc1ccc(Cl)c(N2C(=O)Nc3c(C(=O)O)sc4ncnc2c34)c1 [Cpd 47, 5-(2-chloro-5-methoxy-phenyl)-4-oxo-4,5-dihydro-3H-1-thia-3,5,6,8-tetraaza-acenaphthylene-2-carboxylic acid] |
| 17 | -13 | – | 11 | 34 | O=C(Nc1ccc(CN2CCOCC2)cc1)c1sc2ncnc3c2c1NC(=O)N3c1ccc(Br)cc1F [Cpd 53, 5-(4-bromo-2-fluoro-phenyl)-4-oxo-4,5-dihydro-3H-1-thia-3,5,6,8-tetraaza-acenaphthylene-2-carboxylic acid (4-morpholin-4-ylmethyl-phenyl)-amide] |
| 3 | -22 | – | -16 | 14 | O=C(Nc1ccc(CN2CCCC2)cc1)c1sc2ncnc3c2c1NC(=O)N3c1cc(OCc2cccc(F)c2)c(Cl)cc1Cl [Cpd 55, 5-[2,4-dichloro-5-(3-fluoro-benzyloxy)-phenyl]-4-oxo-4,5-dihydro-3H-1-thia-3,5,6,8-tetraaza-acenaphthylene-2-carboxylic acid (4-pyrrolidin-1-ylmethyl-phenyl)-amide] |
| 7 | -6 | – | -22 | 20 | COc1cc(NC(=O)c2sc3ncnc4c3c2NC(=O)N4c2cc(OCc3cccc(F)c3)c(Cl)cc2Cl)ccc1OCCN1CCCCC1 [Cpd 56, 5-[2,4-dichloro-5-(3-fluoro-benzyloxy)-phenyl]-4-oxo-4,5-dihydro-3H-1-thia-3,5,6,8-tetraaza-acenaphthylene-2-carboxylic acid [3-methoxy-4-(2-piperidin-1-yl-ethoxy)-phenyl]-amide] |
| 1 | -20 | – | -16 | 12 | O=C(Nc1ccc(CN2CCCCC2)cc1)c1sc2ncnc3c2c1NC(=O)N3c1cc(OCc2cccc(F)c2)c(Cl)cc1Cl [Cpd 57, 5-[2,4-dichloro-5-(3-fluoro-benzyloxy)-phenyl]-4-oxo-4,5-dihydro-3H-1-thia-3,5,6,8-tetraaza-acenaphthylene-2-carboxylic acid (4-piperidin-1-ylmethyl-phenyl)-amide] |
| 6 | -27 | – | -48 | 16 | O=C(O)c1sc2ncnc3c2c1NC(=O)N3c1cc(OCc2cccc(F)c2)c(Cl)cc1Cl [Cpd 58, 5-[2,4-dichloro-5-(3-fluoro-benzyloxy)-phenyl]-4-oxo-4,5-dihydro-3H-1-thia-3,5,6,8-tetraaza-acenaphthylene-2-carboxylic acid] |
